The values that follow come from US20140107109A1, “AMINO-DIHYDROTHIAZINE AND AMINO-DIOXIDO DIHYDROTHIAZINE COMPOUNDS AS BETA-SECRETASE ANTAGONISTS AND METHODS OF USE” (Amgen Inc., priority 2012, published 2014).

As usually defined, the IC50 is the concentration that gives 50% inhibition.

Assay [1] addresses Beta Secretase enzyme (BACE1) (Homo sapiens, UniProt P56817). Nature of the assay: In vitro enzymatic BACE FRET assay. The format is biochemical. The note with it: average IC50, enzyme assay; read-out: BACE1 FRET assay IC50. The procedure, abridged:
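BACE1 cleavage of a 50 nM fluorophore/quencher peptide FRET substrate ran for one hour in 0.05 M acetate pH 4.2, 10% DMSO, 100 uM genapol. Tris buffer raised pH to neutrality to stop the reaction before fluorescence was read (excitation 488 nm, […]).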

Assay [2] concerns Aβ40 in conditioned medium of cells stably expressing Amyloid Precursor Protein (APP). Nature of the assay: In vitro BACE cell-based assay (HEK cell assay), Aβ40 sandwich ELISA. Conditions: Homo sapiens, HEK293; average IC50, cell assay. The procedure, abridged:
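APP-stably expressing cells (40K/well, grown 24 h in DMEM/10% FBS) were treated 24 h with compounds in 10-point dose response starting at 100 μM or 10 μM, 0.1% DMSO final. Secreted Aβ40 was measured by sandwich ELISA (pAb40 capture, biotinylated 6E10 detection, europium time-resolved fluorescence); IC50 from percent inhibition.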
Background: In an ELISA, binding on a coated surface is turned into a signal by an enzyme label.

Assay [3] concerns the target T1, Cathepsin D (Cat D) (Homo sapiens, UniProt P07339).
T1 construct: Recombinant Cat D was expressed in CHO cells; made in house; host or cells: CHO cells
Nature of the assay: In vitro enzymatic Cathepsin D (Cat D) FRET assay. The format is biochemical. Conditions: read-out: CatD IC50. The procedure, abridged: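 Recombinant Cat D expressed in CHO cells, used at 9 nM and pre-incubated one hour with serially diluted inhibitor in DMSO. Peptide substrate carries a fluorophore and quencher flanking the cleavage site; reaction stopped with Tris buffer raising pH to neutrality, then fluorescence read.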

Chain of Beta Secretase enzyme (BACE1) (P56817 46-501): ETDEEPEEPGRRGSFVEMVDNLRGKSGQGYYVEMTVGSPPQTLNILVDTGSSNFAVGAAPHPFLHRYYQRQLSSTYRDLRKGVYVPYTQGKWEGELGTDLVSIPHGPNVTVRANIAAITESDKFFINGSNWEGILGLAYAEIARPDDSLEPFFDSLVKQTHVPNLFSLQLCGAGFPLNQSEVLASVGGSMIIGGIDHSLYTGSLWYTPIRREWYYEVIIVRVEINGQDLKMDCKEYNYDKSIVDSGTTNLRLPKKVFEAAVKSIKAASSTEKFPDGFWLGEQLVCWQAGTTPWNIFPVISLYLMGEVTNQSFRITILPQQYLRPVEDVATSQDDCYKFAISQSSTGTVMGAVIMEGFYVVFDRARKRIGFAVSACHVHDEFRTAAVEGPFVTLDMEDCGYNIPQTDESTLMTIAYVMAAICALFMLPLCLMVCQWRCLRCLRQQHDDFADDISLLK
T1 sequence (P07339 65-412, species assumed): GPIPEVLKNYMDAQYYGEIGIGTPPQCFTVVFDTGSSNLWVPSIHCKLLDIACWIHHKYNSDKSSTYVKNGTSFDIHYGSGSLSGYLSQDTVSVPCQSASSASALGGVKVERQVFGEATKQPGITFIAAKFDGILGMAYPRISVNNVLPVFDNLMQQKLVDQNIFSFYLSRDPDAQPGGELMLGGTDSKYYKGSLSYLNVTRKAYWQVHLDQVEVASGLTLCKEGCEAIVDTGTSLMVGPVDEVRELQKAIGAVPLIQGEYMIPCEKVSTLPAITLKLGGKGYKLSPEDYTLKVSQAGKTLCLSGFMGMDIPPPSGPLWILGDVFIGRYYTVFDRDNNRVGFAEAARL

For `COc1cnc2c(Nc3ccc(F)c([C@@]4(C)N=C(N)C(C)(C)S(=O)(=O)C45CC5)c3)nccc2n1` [Example 250, N-(3-((8R)-6-amino-5,5,8-trimethyl-4,4-dioxido-4-thia-7-azaspiro[2.5]oct-6-en-8-yl)-4-fluorophenyl)-2-methoxypyrido[3,4-b]pyrazin-5-amine], the IC50 came to 0.0212 µM in assay [1], 0.059 µM in assay [2] and 113 µM in assay [3].

For the compound `C[C@]1(c2cc(Nc3nccc4cc(C#N)cnc34)ccc2F)N=C(N)C2(CCC2)S(=O)(=O)C1F` (stereo partly drawn) [Example 251, 8-((3-((7R)-9-amino-6-fluoro-7-methyl-5,5-dioxido-5-thia-8-azaspiro[3.5]non-8-en-7-yl)-4-fluorophenyl)amino)-1,7-naphthyridine-3-carbonitrile], the IC50 in assay [1] came to 0.00058 µM; in assay [2], 0.0135 µM; in assay [3], 42.8 µM.

On to `COc1ccc(CSc2ccc(F)c([C@]3(C)CS(=O)(=O)C(C)(C)C(N)=N3)c2)cc1` [Example 252, (5R)-5-(2-fluoro-5-((4-methoxybenzyl)sulfanyl)phenyl)-2,2,5-trimethyl-5,6-dihydro-2H-1,4-thiazin-3-amine 1,1-dioxide], for which the IC50 in assay [1] turned out to be 1.21 µM; in assay [2] it was 1.9 µM; in assay [3], 35.9 µM.

Consider `CC1(C)C(N)=N[C@](C)(c2cc(Oc3nccc4nc(C(F)(F)F)cnc34)ccc2F)CS1(=O)=O` [Example 253, (5R)-5-(2-fluoro-5-((2-(trifluoromethyl)pyrido[3,4-b]pyrazin-5-yl)oxy)phenyl)-2,2,5-trimethyl-5,6-dihydro-2H-1,4-thiazin-3-amine 1,1-dioxide], for which the half-maximal inhibitory concentration (IC50) in assay [1] came to 0.0276 µM; in assay [2] it was 1.03 µM; in assay [3] it was 1410 µM.

With `CC#CCOc1cnc2c(Nc3ccc(F)c([C@]4(C)CS(=O)(=O)C(C)(C)C(N)=N4)c3)nccc2c1` [Example 254, N-(3-((3R)-5-amino-3,6,6-trimethyl-1,1-dioxido-3,6-dihydro-2H-1,4-thiazin-3-yl)-4-fluorophenyl)-3-(2-butyn-1-yloxy)-1,7-naphthyridin-8-amine], the values for the IC50 in assay [1], in assay [2] and in assay [3] were 0.0006 µM, 0.0006 µM and 354 µM, respectively.

As to `CC1(C)C(N)=N[C@](C)(c2cc(Oc3cc(-c4ccc(C(F)(F)F)cc4)ccn3)ccc2F)CS1(=O)=O` [Example 255, (5R)-5-(2-fluoro-5-((4-(4-(trifluoromethyl)phenyl)-2-pyridinyl)oxy)phenyl)-2,2,5-trimethyl-5,6-dihydro-2H-1,4-thiazin-3-amine 1,1-dioxide], the IC50 in assay [1] came out at 0.663 µM; in assay [2] it was 3.99 µM; in assay [3], 50.5 µM.

Turning to `Cc1cc(-c2cnc(Oc3ccc(F)c([C@]4(C)CS(=O)(=O)C(C)(C)C(N)=N4)c3)c(F)c2)on1` [Example 256, (5R)-5-(2-fluoro-5-((3-fluoro-5-(3-methyl-5-isoxazolyl)-2-pyridinyl)oxy)phenyl)-2,2,5-trimethyl-5,6-dihydro-2H-1,4-thiazin-3-amine 1,1-dioxide], the IC50 came out at 0.65 µM in assay [1], 1.82 µM in assay [2] and 195 µM in assay [3].

On to `CC(C)(C)Cc1ccc(Oc2ccc(F)c([C@]3(C)CS(=O)(=O)C(C)(C)C(N)=N3)c2)nc1` [Example 257, (5R)-5-(5-((5-(2,2-dimethylpropyl)-2-pyridinyl)oxy)-2-fluorophenyl)-2,2,5-trimethyl-5,6-dihydro-2H-1,4-thiazin-3-amine 1,1-dioxide], for which the IC50 in assay [1] came out at 18.9 µM; in assay [2], 7.79 µM; in assay [3], 187 µM.

On to `CC1(C)C(N)=N[C@](C)(c2cc(Oc3ncccc3Cl)ccc2F)CS1(=O)=O` [Example 258, (5R)-5-(5-((3-chloro-2-pyridinyl)oxy)-2-fluorophenyl)-2,2,5-trimethyl-5,6-dihydro-2H-1,4-thiazin-3-amine 1,1-dioxide], for which the figures for the IC50 in assay [1], in assay [2] and in assay [3] were 0.0969 µM, 0.121 µM and 207 µM, respectively.

As for `CC1(C)C(N)=N[C@](C)(c2cc(Oc3cc(C(F)(F)F)ccn3)ccc2F)CS1(=O)=O` [Example 259, (5R)-5-(2-fluoro-5-((4-(trifluoromethyl)-2-pyridinyl)oxy)phenyl)-2,2,5-trimethyl-5,6-dihydro-2H-1,4-thiazin-3-amine 1,1-dioxide], the IC50 in assay [1] was 0.153 µM; in assay [2], 0.248 µM; in assay [3], 1050 µM.

Take `CC1(C)C(N)=N[C@](C)(c2cc(Nc3nccc4cc(OCC5CC5)cnc34)ccc2F)CS1(=O)=O` [Example 260, N-(3-((3R)-5-amino-3,6,6-trimethyl-1,1-dioxido-3,6-dihydro-2H-1,4-thiazin-3-yl)-4-fluorophenyl)-3-(cyclopropylmethoxy)-1,7-naphthyridin-8-amine]: the IC50 is 0.0038 µM in assay [1], 0.0075 µM in assay [2] and 250 µM in assay [3].

With `CC1(C)C(N)=N[C@](C)(c2cc(Oc3ccc4ccccc4n3)ccc2F)CS1(=O)=O` [Example 261, (5R)-5-(2-fluoro-5-(2-quinolinyloxy)phenyl)-2,2,5-trimethyl-5,6-dihydro-2H-1,4-thiazin-3-amine 1,1-dioxide], the IC50 in assay [1] was 0.3 µM; in assay [2] it was 0.574 µM; in assay [3] it was 58.3 µM.

Turning to `CC1(C)C(N)=N[C@](C)(c2cc(Oc3ncc(F)c(C(F)(F)F)c3F)ccc2F)CS1(=O)=O` [Example 262, (5R)-5-(5-((3,5-difluoro-4-(trifluoromethyl)-2-pyridinyl)oxy)-2-fluorophenyl)-2,2,5-trimethyl-5,6-dihydro-2H-1,4-thiazin-3-amine 1,1-dioxide], the IC50 in assay [1] is 15.5 µM; in assay [2], above 15.6 µM; in assay [3], 68.1 µM.

Take `Cc1cccnc1Oc1ccc(F)c([C@]2(C)CS(=O)(=O)C(C)(C)C(N)=N2)c1` [Example 263, (5R)-5-(2-fluoro-5-((3-methyl-2-pyridinyl)oxy)phenyl)-2,2,5-trimethyl-5,6-dihydro-2H-1,4-thiazin-3-amine 1,1-dioxide]: the IC50 was 0.65 µM in assay [1], 0.624 µM in assay [2] and 555 µM in assay [3].

Regarding `Cc1ccnc(Oc2ccc(F)c([C@]3(C)CS(=O)(=O)C(C)(C)C(N)=N3)c2)c1` [Example 264, (5R)-5-(2-fluoro-5-((4-methyl-2-pyridinyl)oxy)phenyl)-2,2,5-trimethyl-5,6-dihydro-2H-1,4-thiazin-3-amine 1,1-dioxide], the IC50 in assay [1] turned out to be 0.18 µM; in assay [2], 0.126 µM; in assay [3] it was 878 µM.

For `Cc1ccc(Oc2ccc(F)c([C@]3(C)CS(=O)(=O)C(C)(C)C(N)=N3)c2)nc1` [Example 265, (5R)-5-(2-fluoro-5-((5-methyl-2-pyridinyl)oxy)phenyl)-2,2,5-trimethyl-5,6-dihydro-2H-1,4-thiazin-3-amine 1,1-dioxide], the results for the IC50 in assay [1], in assay [2] and in assay [3] were 2.26 µM, 0.804 µM and 373 µM, respectively.

As for `Cc1cccc(Oc2ccc(F)c([C@]3(C)CS(=O)(=O)C(C)(C)C(N)=N3)c2)n1` [Example 266, (5R)-5-(2-fluoro-5-((6-methyl-2-pyridinyl)oxy)phenyl)-2,2,5-trimethyl-5,6-dihydro-2H-1,4-thiazin-3-amine 1,1-dioxide], the IC50 in assay [1] was found to be 0.413 µM; in assay [2], 0.427 µM; in assay [3] it was 407 µM.
